Experimental data reported in US12459974B2, “Bicyclic peptide ligands specific for Nectin-4” (priority 2018, dated 2025).
*1 amine or outer side, *2 acyl side, *3 side chain or, on linkers, in order; H or OH if unused. Where a SMILES comes first, the peptide text is derived from it. Bridges are numbered along the chain shown (N, C = ends). Roman numbers before positions name the chains, in order. [ ]: non-standard residue; d: D form. The star is where a group is joined. ξ: configuration not given here. TATA = O=C(CC[*:1])N1CN(C(=O)CC[*:2])CN(C(=O)CC[*:3])C1; Dolaproine = CO[C@@H]([C@@H]1CCCN1)[C@@H](C)C(=O)O; X1 = CC[C@H](C)C(C(CC(=O)[*:2])OC)N(C)[*:1]; 1Nal = N[C@@H](Cc1cccc2ccccc12)C(=O)O; X3 = O=C(CCCC(=O)[*:2])NCCC(=O)[*:1]; PABC = O=C(OCc1ccc(N[*:1])cc1)[*:2]; Hyp = O=C(O)[C@@H]1C[C@@H](O)CN1; hArg = N=C(N)NCCCC[C@H](N)C(=O)O; Cit = NC(=O)NCCC[C@H](N)C(=O)O; X2 = CC(N*)[C@@H](O)c1ccccc1; ξNMeV = CNC(C(=O)O)C(C)C; ξV = CC(C)C(N)C(=O)O; Sar = CNCC(=O)O

Tests used:
HT-1376 xenograft = assay: Example 2: in vivo efficacy in HT-1376 xenograft (bladder cancer model) in CB17-SCID mice
Method: (§1) The major endpoint was to see if the tumor growth could be delayed or mice could be cured. Tumor volume was measured three times weekly in two dimensions using a caliper, and the volume was expressed in mm^3 using the formula: V=0.5 a×b^2 where a and b are the long and short diameters of the tumor, respectively. The tumor size was then used for calculations of T/C value. The T/C value (in percent) is an indication of antitumor effectiveness; T and C are the mean volumes of the treated and control groups, respectively, on a given day. TGI was calculated for each group using the formula: TGI (%)=[1−(Ti−T0)/(Vi−V0)]×100; Ti is the average tumor volume of a treatment group on a given day, T0 is the average tumor volume of the treatment group on the day of treatment start, Vi is the average tumor volume of the vehicle control group on the same day with Ti, and V0 is the average tumor volume of the vehicle group on the day of treatment start.
A one-way ANOVA was performed to compare tumor volume among groups, and when a significant F-statistics (a ratio of treatment variance to the error variance) was obtained, comparisons between groups were carried out with Games-Howell test. […] P<0.05 was considered to be statistically significant.
• Species: Mus Musculus • Strain: CB17-SCID • Age: 6-8 weeks • Sex: female • Body weight: 18-22 g • Number of animals: 21-41 mice plus spare • Animal supplier: Shanghai LC Laboratory Animal Co., LTD.
The HT-1376 tumor cells were maintained in vitro as a monolayer culture in EMEM medium supplemented with 10% heat inactivated fetal bovine serum at 37° C. in an atmosphere of 5% CO2 in air. The tumor cells were routinely subcultured twice weekly by trypsin-EDTA treatment.
Each mouse was inoculated subcutaneously at the right flank with HT-1376 tumor cells (5×10^6) in 0.2 ml of PBS with matrigel (1:1) for tumor development. Animals were randomized when the average tumor volume reached 153-164 mm^3.
Tumor growth inhibition rate for Test articles in the HT-1376 xenograft model was calculated based on tumor volume measurements at day 21 after the start of treatment.

NCI-H526 xenograft = assay: Example 9.6: in vivo efficacy in NCI-H526 xenograft in Balb/c nude mice; settings: for Tumor volume: iv
Method: as §1
A one-way ANOVA was performed to compare tumor volume among groups, and when a significant F-statistics (a ratio of treatment variance to the error variance) was obtained, comparisons between groups were carried out with Games-Howell test. All data were analyzed using GraphPad Prism 5.0. P<0.05 was considered to be statistically significant.
• Species: Mus Musculus • Strain: Balb/c nude • Age: 6-8 weeks • Sex: female • Body weight: 18-22 g • Number of animals: 21 mice plus spare 3.1.2.
The NCI-H526 cells were maintained in medium supplemented with 10% heat inactivated fetal bovine serum at 37° C. in an atmosphere of 5% CO2 in air. The tumor cells were routinely subcultured twice weekly. The cells growing in an exponential growth phase were harvested and counted for tumor inoculation.
Each mouse was inoculated subcutaneously at the right flank with NCI-H526 tumor cells (5.0×10^6 in 0.2 ml of PBS for tumor development. 21 animals were randomized when the average tumor volume reached 181 mm^3. The test article administration and the animal numbers in each group were shown in the experimental design table.
Tumor growth inhibition rate for test articles in the NCI-H526 xenograft model was calculated based on tumor volume measurements at day 14 after the start of the treatment.

CC[C@H](C)C(C(CC(=O)N1CCC[C@H]1[C@H](OC)[C@@H](C)C(=O)NC(C)[C@@H](O)c1ccccc1)OC)N(C)C(=O)[C@@H](NC(=O)C(C(C)C)N(C)C(=O)OCc1ccc(NC(=O)[C@H](CCCNC(N)=O)NC(=O)C(NC(=O)CCCC(=O)NCCC(=O)N(C)CC(=O)N(C)CC(=O)N(C)CC(=O)N(C)CC(=O)N(C)CC(=O)N(C)CC(=O)N(C)CC(=O)N(C)CC(=O)N(C)CC(=O)N(C)CC(=O)N[C@H]2CSCCC(=O)N3CN4CN(C3)C(=O)CCSC[C@H](NC(=O)[C@@H](CC(=O)O)NC(=O)[C@H](Cc3cccc5ccccc35)NC(=O)[C@@H]3CCCN3C2=O)C(=O)N[C@@H](CCSC)C(=O)N[C@@H](CCCCNC(=N)N)C(=O)N[C@@H](CC(=O)O)C(=O)N[C@@H](Cc2c[nH]c3ccccc23)C(=O)N[C@@H](CO)C(=O)N[C@@H]([C@@H](C)O)C(=O)N2CCC[C@H]2C(=O)N2C[C@H](O)C[C@H]2C(=O)N[C@@H](Cc2c[nH]c3ccccc23)C(=O)N[C@H](C(N)=O)CSCCC4=O)C(C)C)cc1)C(C)C (stereo partly drawn) [BCY8245, MMAE-PABC-Cit-Val-Glutaryl-BCY8234] (I: [Sar][Sar][Sar][Sar][Sar][Sar][Sar][Sar][Sar][Sar]CP[1Nal][dD]CM[hArg]DWSTP[Hyp]WC-NH2 / II: [ξV][Cit][PABC][ξNMeV]V[X1][Dolaproine]-X2; linker I:11-I:15-I:25 via TATA; linker I:N-II:N via X3)
Tumor volume (HT-1376 xenograft; 3 mpk, biw, iv, day 14 (Table 15)): 407 ± 53 mm^3 | Tumor volume (HT-1376 xenograft; 3 mpk, biw, day 14 values of Table 15, Mean ± SEM (Table 17)): 407 ± 53 mm^3 | T/C (HT-1376 xenograft; 3 mpk, qw (Table 17)): 56.4% | TGI (HT-1376 xenograft; 3 mpk, qw (Table 17)): 50.9% | Tumor volume (HT-1376 xenograft; 3 mpk, qw, iv, day 0 after start of treatment (Table 15, groups 8-17)): 153 ± 26 mm^3 | Tumor volume (HT-1376 xenograft; 3 mpk, qw, iv, day 2 (Table 15)): 254 ± 53 mm^3 | Tumor volume (HT-1376 xenograft; 3 mpk, qw, iv, day 5 (Table 15)): 298 ± 69 mm^3 | Tumor volume (HT-1376 xenograft; 3 mpk, qw, iv, day 7 (Table 15)): 398 ± 61 mm^3 | Tumor volume (HT-1376 xenograft; 3 mpk, qw, iv, day 9 (Table 15)): 468 ± 73 mm^3 | Tumor volume (HT-1376 xenograft; 3 mpk, qw, iv, day 12 (Table 15)): 502 ± 67 mm^3 | Tumor volume (HT-1376 xenograft; 3 mpk, qw, iv, day 14 (Table 15)): 603 ± 76 mm^3 | Tumor volume (HT-1376 xenograft; 3 mpk, qw, day 14 values of Table 15, Mean ± SEM (Table 17)): 603 ± 76 mm^3 | T/C (HT-1376 xenograft; 3 mpk, qw, day 21 (Table 16)): 39.2% | TGI (HT-1376 xenograft; 3 mpk, qw, day 21 (Table 16)): 74.5% | Tumor volume (HT-1376 xenograft; 3 mpk, qw, day 21, Mean ± SEM (Table 16)): 347 ± 14 mm^3 | T/C (HT-1376 xenograft; 5 mpk, qw (Table 17)): 43.5% | TGI (HT-1376 xenograft; 5 mpk, qw (Table 17)): 66.0% | Tumor volume (HT-1376 xenograft; 5 mpk, qw, iv, day 0 after start of treatment (Table 15)): 153 ± 15 mm^3 | Tumor volume (HT-1376 xenograft; 5 mpk, qw, iv, day 2 (Table 15)): 237 ± 41 mm^3 | Tumor volume (HT-1376 xenograft; 5 mpk, qw, iv, day 5 (Table 15)): 228 ± 36 mm^3 | Tumor volume (HT-1376 xenograft; 5 mpk, qw, iv, day 7 (Table 15)): 317 ± 31 mm^3 | Tumor volume (HT-1376 xenograft; 5 mpk, qw, iv, day 9 (Table 15)): 394 ± 20 mm^3 | Tumor volume (HT-1376 xenograft; 5 mpk, qw, iv, day 12 (Table 15)): 438 ± 31 mm^3 | Tumor volume (HT-1376 xenograft; 5 mpk, qw, iv, day 14 (Table 15)): 465 ± 33 mm^3 | Tumor volume (HT-1376 xenograft; 5 mpk, qw, day 14 values of Table 15, Mean ± SEM (Table 17)): 465 ± 33 mm^3 | efficacy (in words) (HT-1376 xenograft; after increasing dosage to 3 mg/kg from day 7): better efficacy | anti-tumour activity (in words) (HT-1376 xenograft; mouse, in vivo): good anti-tumour activity | TGI (NCI-H526 xenograft; 3 mg/kg biw, day 14): 21.6% | Tumor volume (TV) (NCI-H526 xenograft; 3 mg/kg biw, day 14): 1109 mm^3 | TGI (NCI-H526 xenograft; 3 mg/kg qw, day 14): 13.4% | Tumor volume (TV) (NCI-H526 xenograft; 3 mg/kg qw, day 14): 1205 mm^3 | animal bodyweight loss (NCI-H526 xenograft; 5 mg/kg biw): over 10% | TGI (NCI-H526 xenograft; 5 mg/kg qw, day 14): 75.0% | Tumor volume (TV) (NCI-H526 xenograft; 5 mg/kg qw, day 14): 476 mm^3 | Tumor volume (NCI-H526 xenograft; 3 mpk, biw, day 0 after the start of treatment): 182 mm^3 | Tumor volume (NCI-H526 xenograft; 3 mpk, biw, day 2): 232 mm^3 | Tumor volume (NCI-H526 xenograft; 3 mpk, biw, day 4): 308 mm^3 | Tumor volume (NCI-H526 xenograft; 3 mpk, biw, day 7): 440 mm^3 | Tumor volume (NCI-H526 xenograft; 3 mpk, biw, day 9): 530 mm^3 | Tumor volume (NCI-H526 xenograft; 3 mpk, biw, day 12): 810 mm^3 | Tumor volume (NCI-H526 xenograft; 3 mpk, biw, day 14): 1109 mm^3 | T/C (NCI-H526 xenograft; 3 mpk, biw, day 14): 81.3% | TGI (NCI-H526 xenograft; 3 mpk, biw, day 14): 21.6% | Tumor Volume (Mean ± SEM) (NCI-H526 xenograft; 3 mpk, biw, day 14): 1109 ± 250 mm^3 | Tumor volume (NCI-H526 xenograft; 3 mpk, qw, day 0 after the start of treatment): 180 mm^3 | Tumor volume (NCI-H526 xenograft; 3 mpk, qw, day 2): 256 mm^3 | Tumor volume (NCI-H526 xenograft; 3 mpk, qw, day 4): 403 mm^3 | Tumor volume (NCI-H526 xenograft; 3 mpk, qw, day 7): 545 mm^3 | Tumor volume (NCI-H526 xenograft; 3 mpk, qw, day 9): 657 mm^3 | Tumor volume (NCI-H526 xenograft; 3 mpk, qw, day 12): 1019 mm^3 | Tumor volume (NCI-H526 xenograft; 3 mpk, qw, day 14): 1205 mm^3 | T/C (NCI-H526 xenograft; 3 mpk, qw, day 14): 88.3% | TGI (NCI-H526 xenograft; 3 mpk, qw, day 14): 13.4% | Tumor Volume (Mean ± SEM) (NCI-H526 xenograft; 3 mpk, qw, day 14): 1205 ± 79 mm^3 | Tumor volume (NCI-H526 xenograft; 5 mpk, qw, day 0 after the start of treatment): 180 mm^3 | Tumor volume (NCI-H526 xenograft; 5 mpk, qw, day 2): 209 mm^3 | Tumor volume (NCI-H526 xenograft; 5 mpk, qw, day 4): 236 mm^3 | Tumor volume (NCI-H526 xenograft; 5 mpk, qw, day 7): 383 mm^3 | Tumor volume (NCI-H526 xenograft; 5 mpk, qw, day 9): 375 mm^3 | Tumor volume (NCI-H526 xenograft; 5 mpk, qw, day 12): 365 mm^3 | Tumor volume (NCI-H526 xenograft; 5 mpk, qw, day 14): 476 mm^3 | T/C (NCI-H526 xenograft; 5 mpk, qw, day 14): 34.9% | TGI (NCI-H526 xenograft; 5 mpk, qw, day 14): 75.0% | Tumor Volume (Mean ± SEM) (NCI-H526 xenograft; 5 mpk, qw, day 14): 476 ± 103 mm^3 | tumor response (in words) (NCI-H526 xenograft; mouse, in vivo): tumor growth is restrained by BCY8245 but the tumor does not undergo regression
